Assay results published in publication PMC4069099, “Pharmacological Validation of an Inward-Rectifier Potassium (Kir) Channel as an Insecticide Target in the Yellow Fever Mosquito Aedes aegypti” (PLoS ONE, 2014).

What was measured:
Assay type in all cases: cell-based
AeKir1 [1] = target: T1, AeKir1 (Aedes aegypti, UniProt L0EQS9); test: Tl+-flux assay in T-REx-HEK293 cells expressing AeKir1; also two-electrode voltage clamp in Xenopus oocytes ([…], […] block)
T1 sequence (L0EQS9 1-486): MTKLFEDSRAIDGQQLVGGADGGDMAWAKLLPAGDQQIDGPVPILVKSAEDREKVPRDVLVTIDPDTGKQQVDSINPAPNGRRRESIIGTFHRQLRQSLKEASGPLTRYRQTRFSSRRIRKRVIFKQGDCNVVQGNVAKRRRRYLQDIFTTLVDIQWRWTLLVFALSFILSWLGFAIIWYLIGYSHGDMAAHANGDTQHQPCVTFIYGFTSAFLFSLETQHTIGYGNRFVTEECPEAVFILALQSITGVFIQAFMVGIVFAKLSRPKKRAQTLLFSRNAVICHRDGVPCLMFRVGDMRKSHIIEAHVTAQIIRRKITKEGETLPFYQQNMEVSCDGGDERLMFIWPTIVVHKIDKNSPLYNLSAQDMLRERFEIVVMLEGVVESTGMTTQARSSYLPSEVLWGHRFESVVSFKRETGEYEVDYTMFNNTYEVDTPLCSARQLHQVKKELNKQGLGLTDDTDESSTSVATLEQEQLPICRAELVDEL

AeKir2B = target: T2, AeKir2B (Aedes aegypti, UniProt L0EQ40); test: two-electrode voltage clamp in Xenopus oocytes, activation of inward current at […]
T2 sequence (L0EQ40 1-489): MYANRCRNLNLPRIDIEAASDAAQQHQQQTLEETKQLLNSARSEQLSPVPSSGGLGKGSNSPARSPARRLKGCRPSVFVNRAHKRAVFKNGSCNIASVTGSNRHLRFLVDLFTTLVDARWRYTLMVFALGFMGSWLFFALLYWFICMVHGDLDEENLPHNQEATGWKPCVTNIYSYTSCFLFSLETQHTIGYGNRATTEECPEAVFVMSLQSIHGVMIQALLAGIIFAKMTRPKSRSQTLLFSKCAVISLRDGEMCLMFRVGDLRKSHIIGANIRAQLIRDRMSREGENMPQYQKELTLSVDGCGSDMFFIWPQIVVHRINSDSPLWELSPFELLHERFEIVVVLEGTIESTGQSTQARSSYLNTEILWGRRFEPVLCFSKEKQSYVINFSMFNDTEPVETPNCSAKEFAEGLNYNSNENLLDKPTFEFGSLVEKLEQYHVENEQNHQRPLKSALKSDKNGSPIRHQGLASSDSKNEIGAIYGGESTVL

AeKir1 [2] = target: T1, AeKir1; test: two-electrode voltage clamp in Xenopus oocytes, inhibition of inward current at […]

Row | SMILES | IC50 (AeKir1 [1]) | % activation at 50 μM (AeKir2B) | % inhibition at 50 μM (AeKir1 [2])
1 | O=[N+]([O-])c1ccc(CN2CCOCCOCCN(Cc3ccc([N+](=O)[O-])cc3)CCOCC2)cc1 [VU590] | 5.6 µM | – | –
2 | Cc1ccc(OCC(O)Cn2c(=N)n(Cc3ccccc3)c3ccccc32)cc1 (stereo not drawn) [VU573] | – | > 50 % activation at 50 µM | ~ 50
